This data set is described as follows: Solubility test in organic solvents. Further details: key: X: not dissolved; ◯: partially dissolved; ⊚: completely dissolved. The settings on record: 1 mg, room temperature (20 degrees Celsius); for Solubility in methylcyclohexane: methyl cyclohexane. Format: physicochemical. As for the experimental part:
1 mg of Tb(TMHD)3—DMSO, Tb(TMHD)3—MPSO, Tb(TMHD)3—DPSO, Tb(TMHD)3, Tb(TMHD)3—OPNP are each dissolved under room temperature (20 degrees Celsius) in the following organic solvent: dichlormethane, acetonitrile, toluene, ethyl acetate, hexane, methyl cyclohexane methanol, methy ethyl ketone ether.

The values that follow come from US6838019B2, “Phosphorescent material and electroluminescent device using thereof” (Ritek Corporation, priority 2001, dated 2005).

As to `CC(C)(C)C(=O)[CH-]C(=O)C(C)(C)C.CC(C)(C)C(=O)[CH-]C(=O)C(C)(C)C.CC(C)(C)C(=O)[CH-]C(=O)C(C)(C)C.[Tb+3]` [Tb(TMHD)3, tris(2,2,6,6-tetramethyl-3,5-heptanedionato) Terbium(III), reference compound], the Solubility in acetonitrile entry was “X”, the Solubility in dichloromethane result was “◯”, the Solubility in ether result is listed as “◯” and the “Solubility in ethyl acetate” value is “X”. Moreover, the Solubility in hexane result is “X”, the Solubility in methanol entry is given as “X”, the Solubility in methylcyclohexane entry was “X” and the “Solubility in methyl ethyl ketone” value is “X”. Further, the Solubility in toluene result is “◯”.
Take `CC(C)(C)C(=O)C=C([O-])C(C)(C)C.CC(C)(C)C(=O)C=C([O-])C(C)(C)C.CC(C)(C)C(=O)C=C([O-])C(C)(C)C.CS(C)=O.[Tb+3]` [Tb(TMHD)3-DMSO, tri(2,2,6,6-tetramethyl-3,5-heptanedionate) Tb(III) dimethyl sulfoxide]: the Solubility in acetonitrile result is “◯”, the Solubility in dichloromethane entry is listed as “⊚”, the Solubility in ether entry is listed as “⊚” and the “Solubility in ethyl acetate” value is “⊚”. In addition, the Solubility in hexane entry was “⊚”, the Solubility in methanol result is “⊚”, the Solubility in methylcyclohexane result was “⊚” and the “Solubility in methyl ethyl ketone” value is listed as “⊚”. Besides, the Solubility in toluene entry is listed as “⊚”.
`CC(C)(C)C(=O)C=C([O-])C(C)(C)C.CC(C)(C)C(=O)C=C([O-])C(C)(C)C.CC(C)(C)C(=O)C=C([O-])C(C)(C)C.O=S(c1ccccc1)c1ccccc1.[Tb+3]` [Tb(TMHD)3-DPSO, tri(2,2,6,6-tetramethyl-3,5-heptanedionate) Tb(III) diphenyl sulfoxide]: the Solubility in acetonitrile entry is reported as “◯”, the Solubility in dichloromethane result is on record as “⊚”, the Solubility in ether entry is given as “⊚” and the “Solubility in ethyl acetate” value is listed as “⊚”. Further, the Solubility in hexane entry is reported as “⊚”, the Solubility in methanol result was “⊚”, the Solubility in methylcyclohexane result is reported as “⊚” and the “Solubility in methyl ethyl ketone” value is “⊚”. Further, the Solubility in toluene result is listed as “⊚”.
Consider `CC(C)(C)C(=O)C=C([O-])C(C)(C)C.CC(C)(C)C(=O)C=C([O-])C(C)(C)C.CC(C)(C)C(=O)C=C([O-])C(C)(C)C.CS(=O)c1ccccc1.[Tb+3]` [Tb(TMHD)3-MPSO, tri(2,2,6,6-tetramethyl-3,5-heptanedionate) Tb(III) methyl phenyl sulfoxide], for which the Solubility in acetonitrile entry is “◯”, the Solubility in dichloromethane entry is reported as “⊚”, the Solubility in ether result is recorded as “⊚” and the “Solubility in ethyl acetate” value is listed as “⊚”. Moreover, the Solubility in hexane entry was “⊚”, the Solubility in methanol entry was “⊚”, the Solubility in methylcyclohexane entry was “⊚” and the “Solubility in methyl ethyl ketone” value is on record as “⊚”. Further, the Solubility in toluene result is “⊚”.
For the compound “Tris(2,2,6,6-tetramethyl-3,5-heptanedionato) Terbium (III) diphenyl phosphonimide tris-phenyl phosphorane [Tb(TMHD)3-OPNP, reference compound]”, the Solubility in acetonitrile result is listed as “◯”, the Solubility in dichloromethane entry is given as “⊚”, the Solubility in ether result was “⊚” and the “Solubility in ethyl acetate” value is “⊚”. In addition, the Solubility in hexane result is recorded as “◯”, the Solubility in methanol entry was “◯”, the Solubility in methylcyclohexane result was “◯” and the “Solubility in methyl ethyl ketone” value is “⊚”. For the same compound, the Solubility in toluene result was “⊚”.
